What was measured:
Settings in all cases: 72 h
Caco-2 [1] = assay: cell viability relative to DMSO; higher = less toxic
HepG2 [2] = assay: as above
U2OS [3] = assay: as above
Vero E6 [4] = assay: as above
Caco-2 [5] = assay: relative viability EC50 (midpoint between 100% and the lowest measured viability); higher = less toxic
HepG2 [6] = assay: as above
U2OS [7] = assay: as above
Vero E6 [8] = assay: as above
Caco-2 [9] = assay: drug sensitivity score (DSS) for viability; higher = more toxic; extreme values may be limits of the assay
HepG2 [10] = assay: as above
U2OS [11] = assay: as above
Vero E6 [12] = assay: as above
Calu-3 [13] = assay: cell viability relative to DMSO; higher = less toxic
Calu-3 [14] = assay: relative viability EC50 (midpoint between 100% and the lowest measured viability); higher = less toxic
Calu-3 [15] = assay: drug sensitivity score (DSS) for viability; higher = more toxic; extreme values may be limits of the assay

Row | SMILES | cell viability (Caco-2 [1]; 1 nM) | cell viability (Caco-2 [1]; 10 nM) | cell viability (Caco-2 [1]; 100 nM) | cell viability (Caco-2 [1]; 1000 nM) | cell viability (Caco-2 [1]; 10000 nM) | cell viability (HepG2 [2]; 1 nM) | cell viability (HepG2 [2]; 10 nM) | cell viability (HepG2 [2]; 100 nM) | cell viability (HepG2 [2]; 1000 nM) | cell viability (HepG2 [2]; 10000 nM) | cell viability (U2OS [3]; 1 nM) | cell viability (U2OS [3]; 10 nM) | cell viability (U2OS [3]; 100 nM) | cell viability (U2OS [3]; 1000 nM) | cell viability (U2OS [3]; 10000 nM) | cell viability (Vero E6 [4]; 1 nM) | cell viability (Vero E6 [4]; 10 nM) | cell viability (Vero E6 [4]; 100 nM) | cell viability (Vero E6 [4]; 1000 nM) | cell viability (Vero E6 [4]; 10000 nM) | relative viability EC50 (Caco-2 [5]) | relative viability EC50 (HepG2 [6]) | relative viability EC50 (U2OS [7]) | relative viability EC50 (Vero E6 [8]) | drug sensitivity score (Caco-2 [9]) | drug sensitivity score (HepG2 [10]) | drug sensitivity score (U2OS [11]) | drug sensitivity score (Vero E6 [12]) | cell viability (Calu-3 [13]; 1 nM) | cell viability (Calu-3 [13]; 10 nM) | cell viability (Calu-3 [13]; 100 nM) | cell viability (Calu-3 [13]; 1000 nM) | cell viability (Calu-3 [13]; 10000 nM) | relative viability EC50 (Calu-3 [14]) | drug sensitivity score (Calu-3 [15])
1 | CN(C)CCn1nnnc1SCC1=C(C(=O)O)N2C(=O)[C@@H](NC(=O)Cc3csc(N)n3)[C@H]2SC1 [cefotiam] | 106% | 96.7% | 101% | 103% | 104% | 102% | 94.5% | 99.7% | 96.5% | 104% | 100% | 97.2% | 106% | 103% | 103% | 99.3% | 95.5% | 96% | 88.1% | 104% | > 10 µM | > 10 µM | > 10 µM | > 10 µM | 0 | 0 | 0 | 0 |  |  |  |  |  |  | 
2 | CCCNC(=O)NS(=O)(=O)c1ccc(Cl)cc1 [chlorpropamide] | 92.6% | 108% | 87.1% | 99.1% | 95.2% | 104% | 103% | 102% | 95.4% | 99.8% | 97.4% | 103% | 97.4% | 99.9% | 93.6% | 97.5% | 98.2% | 102% | 103% | 104% | > 10 µM | > 10 µM | > 10 µM | > 10 µM | 0 | 0 | 0 | 0 |  |  |  |  |  |  | 
3 | COCCOC(=O)C1=C(C)NC(C)=C(C(=O)OC/C=C/c2ccccc2)C1c1cccc([N+](=O)[O-])c1 (centres undefined) [cilnidipine] | 91.1% | 94.3% | 94% | 92.9% | 67.7% | 118% | 104% | 114% | 104% | 91.8% | 99.1% | 103% | 98.8% | 104% | 85% |  |  |  |  |  |  | > 10 µM | > 10 µM |  | 2.5 | 0 | 0.1 |  | 99.2% | 105% | 93.3% | 105% | 95.2% | > 10 µM | 0
4 | CCOC(=O)c1ccc(NC2CCCCC2)c(N)c1 [ferrostatin-1] | 99.8% | 99.9% | 102% | 102% | 86.1% | 94% | 108% | 97.8% | 97% | 113% | 97.5% | 96.6% | 98.6% | 98.9% | 96.6% | 97.6% | 101% | 94.3% | 95.1% | 100% | > 10 µM | > 10 µM | > 10 µM | > 10 µM | 0.1 | 0 | 0 | 0 |  |  |  |  |  |  | 
5 | CC1CCc2cc(F)cc3c(=O)c(C(=O)O)cn1c23 (centres undefined) [flumequine] | 91% | 75.1% | 96.5% | 112% | 121% | 95.3% | 97.7% | 89.4% | 96.4% | 92.7% | 98.1% | 98.3% | 102% | 97.9% | 104% | 103% | 94.7% | 107% | 108% | 92.1% | > 10 µM | > 10 µM | > 10 µM | > 10 µM | 0 | 0 | 0 | 0 |  |  |  |  |  |  | 
6 | C[C@]12CC/C(=N\OCCN)C[C@@H]1C(=O)C[C@@H]1[C@@H]2CC[C@]2(C)C(=O)CC[C@@H]12 [istaroxime] | 97.6% | 93.1% | 95.7% | 88.4% | 71.7% | 110% | 102% | 88.6% | 99.7% | 87.2% | 98.8% | 96.9% | 101% | 95.7% | 51.4% | 106% | 105% | 98.3% | 97.9% | 61.1% |  | > 10 µM |  |  | 2.1 | 0 | 3.2 | 2.2 | 94.5% | 96.5% | 93% | 91.1% | 95.5% | > 10 µM | 0
7 | C/C(=C\c1csc(C)n1)[C@@H]1C[C@@H]2O[C@]2(C)CCC[C@H](C)[C@H](O)[C@@H](C)C(=O)C(C)(C)[C@@H](O)CC(=O)N1 [ixabepilone] | 101% | 98.4% | 65.2% | 48.8% | 49.2% | 107% | 103% | 43.6% | 33.6% | 17.3% | 99.7% | 99.3% | 101% | 41.3% | 28% | 108% | 108% | 84.6% | 60.2% | 36.5% | 0.0664 µM | 0.0721 µM | 0.556 µM | 0.493 µM | 13.6 | 21.7 | 10.9 | 9.1 | 108% | 108% | 88.1% | 67.2% | 60.8% |  | 7.2
8 | C=C1/C(=C\C=C2/CCC[C@]3(C)[C@@H]([C@H](C)OCCC(C)(C)O)CC[C@@H]23)C[C@@H](O)C[C@@H]1O [maxacalcitol] | 91.9% | 91.3% | 94.1% | 87.8% | 101% | 105% | 99.3% | 98.3% | 91.5% | 98.5% | 102% | 103% | 93.5% | 91.6% | 97.4% | 109% | 105% | 102% | 100% | 94.6% | > 10 µM | > 10 µM | > 10 µM | > 10 µM | 0 | 0 | 0 | 0 |  |  |  |  |  |  | 
9 | C[N+](C)(C)NCCC(=O)O [meldonium] | 96.1% | 101% | 102% | 92% | 102% | 97.6% | 96.1% | 98.4% | 107% | 101% | 102% | 99.1% | 104% | 97.7% | 101% | 99.1% | 105% | 95.5% | 97% | 101% | > 10 µM | > 10 µM | > 10 µM | > 10 µM | 0 | 0 | 0 | 0 |  |  |  |  |  |  | 
10 | CC(=O)SCCC(=O)N1[C@H](C)CCC[C@@H]1C(=O)O [methiopril] | 96.1% | 103% | 93.8% | 100% | 89.6% | 109% | 99.3% | 98.6% | 96% | 97.2% |  |  |  |  |  |  |  |  |  |  | > 10 µM | > 10 µM |  |  | 0 | 0 |  |  | 99.2% | 99.6% | 96.8% | 97.5% | 88.1% | > 10 µM | 0.1
11 | O=C(O)c1cc(/N=N/c2ccc(O)c(C(=O)O)c2)ccc1O [olsalazine] | 96.8% | 107% | 104% | 106% | 91.9% |  |  |  |  |  | 99% | 102% | 103% | 107% | 103% |  |  |  |  |  | > 10 µM |  | > 10 µM |  | 0 |  | 0 |  | 107% | 94.3% | 94.4% | 100% | 105% | > 10 µM | 0
12 | C[C@H](/C=C/[C@H](C)C(C)(C)O)[C@H]1CC[C@H]2/C(=C/C=C3C[C@@H](O)C[C@H](O)C3)CCC[C@]12C [paricalcitol] | 102% | 101% | 98.8% | 89.8% | 96.5% | 101% | 99.2% | 99.3% | 95.6% | 82.1% | 107% | 98.1% | 98.9% | 97.6% | 99.3% | 96.6% | 97.3% | 95.4% | 103% | 101% | > 10 µM | > 10 µM | > 10 µM | > 10 µM | 0.1 | 0.9 | 0 | 0 |  |  |  |  |  |  | 
13 | c1ccc2c(Oc3nc(Nc4ccc(N5CCOCC5)cc4)c4ncn(C5CCCCC5)c4n3)cccc2c1 [purmorphamine] | 94.9% | 94.2% | 89.8% | 98.7% | 85.9% | 97.4% | 105% | 103% | 91.9% | 77.8% |  |  |  |  |  | 99.2% | 96.1% | 100% | 91.7% | 90.1% | > 10 µM | > 10 µM |  | > 10 µM | 0 | 1.7 |  | 0 | 92.7% | 92.4% | 94.3% | 106% | 74.3% |  | 0.7
14 | COc1cc2c(cc1OC)[C@@H]1Cc3ccc(OC)c(OC)c3CN1CC2 [rotundine] | 102% | 98.1% | 94.8% | 109% | 91% |  |  |  |  |  |  |  |  |  |  |  |  |  |  |  | > 10 µM |  |  |  | 0 |  |  |  | 103% | 108% | 99.8% | 101% | 89.2% | > 10 µM | 0
15 | CC1(C)CCC(C)(C)c2cc(NC(=O)c3ccc(C(=O)O)cc3)ccc21 [tamibarotene] | 98% | 100% | 95.4% | 98.8% | 83.8% | 110% | 98.7% | 114% | 109% | 108% | 99% | 96.1% | 90.6% | 91.4% | 87.7% | 101% | 101% | 100% | 91.6% | 96.5% | > 10 µM | > 10 µM | > 10 µM | > 10 µM | 0.4 | 0 | 0.3 | 0 | 95.4% | 83.6% | 73.5% | 67.8% | 70.1% |  | 10.1
16 | COc1cc(/C=C(\C#N)C(N)=O)cc(CSc2nc3ccccc3s2)c1O [tyrphostin-AG-825] | 102% | 103% | 96.2% | 107% | 96.4% | 105% | 92.4% | 103% | 97.3% | 108% | 94.7% | 99.9% | 97.7% | 96% | 101% | 92.6% | 97% | 94.7% | 93.8% | 105% | > 10 µM | > 10 µM | > 10 µM | > 10 µM | 0 | 0 | 0 | 0 |  |  |  |  |  |  | 
17 | C/C=C/C[C@@H](C)C(=O)[C@H]1C(=O)N[C@@H](C(C)C)C(=O)N(C)CC(=O)N(C)[C@@H](CC(C)C)C(=O)N[C@@H](C(C)C)C(=O)N(C)[C@@H](CC(C)C)C(=O)N[C@@H](C)C(=O)N[C@H](C)C(=O)N(C)[C@@H](CC(C)C)C(=O)N(C)[C@@H](CC(C)C)C(=O)N(C)[C@@H](C(C)C)C(=O)N1C [valspodar] | 119% | 111% | 106% | 73.5% | 50.7% |  |  |  |  |  | 99.9% | 96.4% | 102% | 99.7% | 87.4% |  |  |  |  |  |  |  | > 10 µM |  | 5.9 |  | 0.1 |  | 109% | 99.8% | 95.4% | 105% | 82.2% | > 10 µM | 0.3
